For the experiment, the system named is LG0703-F948-PDC complex spheroid viability. The experiment can be described thus: Anticancer human tumor LG0703-F948-PDC patient-derived lung adenocarcinoma cell line growth inhibition [RAS]. As to conditions: for viability, T/C: stronger effect = lower value. An outline of the steps: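 Agents were tested in combination matrices in half-log decrements from a top concentration at or near clinical Cmax (10 microM if undetermined). Targets were multi-cell spheroids of tumour lines plus HUVEC and MSC stromal cells.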

“And” between values parts separate entries of the source, which are not always exact repeats. Equal values may be shown once.
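Note: spheroids exposed to agents for 7 days.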
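Throughout, for viability, T/C: 100% = DMSO vehicle wells.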

`CCN1CCN(Cc2ccc(Nc3ncc(F)c(-c4cc(F)c5nc(C)n(C(C)C)c5c4)n3)nc2)CC1` + C=CC(=O)N1CCN(c2nc(OCC3CCCN3C)nc3c(F)c(-c4nc(N)cc(C)c4C(F)(F)F)c(Cl)cc23)C(C)C1: the IC50 (curve of first compound, second compound 0.00316 µM) is > 1 µM; the IC50 (curve of first compound, second compound 0.01 µM) is > 1 µM; the IC50 (curve of first compound, second compound 0.0316 µM) was > 1 µM; the IC50 (curve of first compound, second compound 0.1 µM) was > 1 µM; the IC50 (curve of first compound, second compound 0.316 µM) was > 1 µM; the IC50 (curve of first compound, second compound 1 µM) is > 1 µM. Moreover, the viability, T/C by setting is: (second compound 0.00316 µM, first compound 0.00316 µM) 106%; (second compound 0.00316 µM, first compound 0.01 µM) 92.5%; (second compound 0.00316 µM, first compound 0.0316 µM) 85.5%; (second compound 0.00316 µM, first compound 0.1 µM) 74.7%; (second compound 0.00316 µM, first compound 0.316 µM) 85.3%; (second compound 0.00316 µM, first compound 1 µM) 66.9%. Moreover, the viability, T/C by setting is: (second compound 0.01 µM, first compound 0.00316 µM) 110%; (second compound 0.01 µM, first compound 0.01 µM) 98.8%; (second compound 0.01 µM, first compound 0.0316 µM) 89.8%; (second compound 0.01 µM, first compound 0.1 µM) 86.5%; (second compound 0.01 µM, first compound 0.316 µM) 81%; (second compound 0.01 µM, first compound 1 µM) 71%. Also, the viability, T/C by setting is: (second compound 0.0316 µM, first compound 0.00316 µM) 108%; (second compound 0.0316 µM, first compound 0.01 µM) 109%; (second compound 0.0316 µM, first compound 0.0316 µM) 91.1%; (second compound 0.0316 µM, first compound 0.1 µM) 79.7%; (second compound 0.0316 µM, first compound 0.316 µM) 82.7%; (second compound 0.0316 µM, first compound 1 µM) 61.7%. In addition, the viability, T/C (second compound 0.1 µM, first compound 0.00316 µM) is 106%; the viability, T/C (second compound 0.1 µM, first compound 0.01 µM) is 98.9%; the viability, T/C (second compound 0.1 µM, first compound 0.0316 µM) is 92.5%; the viability, T/C (second compound 0.1 µM, first compound 0.1 µM) is 78%; the viability, T/C (second compound 0.1 µM, first compound 0.316 µM) was 84.3%; the viability, T/C (second compound 0.1 µM, first compound 1 µM) is 68.9%. Besides, the viability, T/C is, setting by setting: (second compound 0.316 µM, first compound 0.00316 µM) 106%; (second compound 0.316 µM, first compound 0.01 µM) 95.6%; (second compound 0.316 µM, first compound 0.0316 µM) 89.6%; (second compound 0.316 µM, first compound 0.1 µM) 81.5%; (second compound 0.316 µM, first compound 0.316 µM) 78.7%; (second compound 0.316 µM, first compound 1 µM) 64.3%. Besides, the viability, T/C runs as follows: (second compound 1 µM, first compound 0.00316 µM) 109%; (second compound 1 µM, first compound 0.01 µM) 109%; (second compound 1 µM, first compound 0.0316 µM) 108%; (second compound 1 µM, first compound 0.1 µM) 81.2%; (second compound 1 µM, first compound 0.316 µM) 87.4%; (second compound 1 µM, first compound 1 µM) 65.3%.
`CCn1c(-c2cccnc2C(C)OC)c2c3cc(ccc31)N1CCOC(CC(NC(=O)C(C(C)C)N(C)C(=O)C3(F)CCN(C(=O)C#CC(C)(C)N(C)C)CC3)C(=O)N3CCCC(N3)C(=O)OCC(C)(C)C2)C1` (centres undefined): the viability, T/C (compound 0.000949 µM) is 99.8% [middle of 8 runs]; the viability, T/C (compound 0.00949 µM) is 101% [middle of 8 runs]; the viability, T/C (compound 0.03 µM) was 101% [middle of 8 runs]; the viability, T/C (compound 0.0949 µM) is 82.6% [middle of 8 runs]; the viability, T/C (compound 0.3 µM) was 50.1% [middle of 8 runs].
For the compound `C#Cc1c(F)ccc2cc(O)cc(-c3ncc4c(N5CC6CCC(C5)N6)nc(OCC56CCCN5CC(F)C6)nc4c3F)c12` (centres undefined), the viability, T/C was 98.8% [middle of 8 runs] (compound 0.1 µM), 85.7% [middle of 8 runs] (compound 0.316 µM), 61% [middle of 8 runs] (compound 3.16 µM) and 56.6% [middle of 8 runs] (compound 10 µM). In addition, the IC50 (compound alone, run of 09/09/2024) was > 10 µM and 9.29 µM.
In the case of `O=C(c1ccc(F)c(F)c1Nc1ccc(I)cc1F)N1CC(O)([C@@H]2CCCCN2)C1` + CCn1c(-c2cc(N3CCN(C)CC3)cnc2C(C)OC)c2c3cc(ccc31)-c1csc(n1)CC(NC(=O)C1CC1C)C(=O)N1CCCC(N1)C(=O)OCC(C)(C)C2, the IC50 is, setting by setting: (curve of first compound, second compound 0.000949 µM) 0.00533 µM; (curve of first compound, second compound 0.003 µM) < 0.00316 µM; (curve of first compound, second compound 0.00949 µM) < 0.00316 µM; (curve of first compound, second compound 0.03 µM) < 0.00316 µM; (curve of first compound, second compound 0.0949 µM) < 0.00316 µM; (curve of first compound, second compound 0.3 µM) < 0.00316 µM. The viability, T/C (second compound 0.000949 µM, first compound 0.00316 µM) was 59.2%; the viability, T/C (second compound 0.000949 µM, first compound 0.01 µM) is 38.7%; the viability, T/C (second compound 0.000949 µM, first compound 0.0316 µM) was 28%; the viability, T/C (second compound 0.000949 µM, first compound 0.1 µM) is 19.2%; the viability, T/C (second compound 0.000949 µM, first compound 0.316 µM) is 18.5%; the viability, T/C (second compound 0.000949 µM, first compound 1 µM) was 14.4%. The viability, T/C reads like this: (second compound 0.003 µM, first compound 0.00316 µM) 37.1%; (second compound 0.003 µM, first compound 0.01 µM) 22.3%; (second compound 0.003 µM, first compound 0.0316 µM) 19.1%; (second compound 0.003 µM, first compound 0.1 µM) 10.5%; (second compound 0.003 µM, first compound 0.316 µM) 11.4%; (second compound 0.003 µM, first compound 1 µM) 8.17%. Moreover, the viability, T/C by setting is: (second compound 0.00949 µM, first compound 0.00316 µM) 17.4%; (second compound 0.00949 µM, first compound 0.01 µM) 15.4%; (second compound 0.00949 µM, first compound 0.0316 µM) 8.52%; (second compound 0.00949 µM, first compound 0.1 µM) 6.3%; (second compound 0.00949 µM, first compound 0.316 µM) 8.85%; (second compound 0.00949 µM, first compound 1 µM) 8.14%. Besides, the viability, T/C by setting is: (second compound 0.03 µM, first compound 0.00316 µM) 10.5%; (second compound 0.03 µM, first compound 0.01 µM) 8.04%; (second compound 0.03 µM, first compound 0.0316 µM) 4.84%; (second compound 0.03 µM, first compound 0.1 µM) 3%; (second compound 0.03 µM, first compound 0.316 µM) 5.82%; (second compound 0.03 µM, first compound 1 µM) 4.58%. Moreover, the viability, T/C reads like this: (second compound 0.0949 µM, first compound 0.00316 µM) 7.33%; (second compound 0.0949 µM, first compound 0.01 µM) 6.13%; (second compound 0.0949 µM, first compound 0.0316 µM) 3.55%; (second compound 0.0949 µM, first compound 0.1 µM) 3.1%; (second compound 0.0949 µM, first compound 0.316 µM) 3.05%; (second compound 0.0949 µM, first compound 1 µM) 3.07%. In addition, the viability, T/C reads like this: (second compound 0.3 µM, first compound 0.00316 µM) 5.13%; (second compound 0.3 µM, first compound 0.01 µM) 3.55%; (second compound 0.3 µM, first compound 0.0316 µM) 2.8%; (second compound 0.3 µM, first compound 0.1 µM) 2.47%; (second compound 0.3 µM, first compound 0.316 µM) 2.61%; (second compound 0.3 µM, first compound 1 µM) 2.35%.

Source of the values: PubChem BioAssay AID2060890 (Molecular Pharmacology Branch, DTP, NCI, 2025).
